Measured values from ChEMBL document CHEMBL4613209, “Quinolone hybrids and their anti-cancer activities: An overview” (Eur J Med Chem, 2019).
Converted amounts (≈) assume the structure as drawn.

What was measured:
PC-3 = assay: Cytotoxicity against human PC3 cells assessed as reduction in cell viability after 48 hrs by SRB assay; format: functional, cell-based; details: PC-3, 48 h
DU-145 [1] = assay: Cytotoxicity against human DU145 cells assessed as reduction in cell viability after 48 hrs by SRB assay; format: functional, cell-based; details: DU-145, 48 h
SMMC-7721 [2] = assay: Cytotoxicity against human SMMC7721 cells assessed as reduction in cell viability by MTT assay; format: functional, cell-based
KB = assay: Cytotoxicity against human KB cells assessed as reduction in cell viability; format: functional; details: read-out: TD50 (the source's name)
L1210 [3] = assay: Cytotoxicity against mouse L1210 cells assessed as reduction in cell viability; format: functional, cell-based
[4] = Cytotoxicity against human SW403 cells assessed as reduction in cell viability; format: functional; details: SW-403, read-out: TD50 (the source's name)
MCF7 [5] = assay: Cytotoxicity against human MCF7 cells assessed as reduction in cell viability; format: functional, cell-based; details: read-out: TD50 (the source's name)
OVCAR-3 = assay: Cytotoxicity against human OVCAR3 cells assessed as reduction in cell viability; format: functional; details: read-out: TD50 (the source's name)
HL-60 [6] = assay: Cytotoxicity against human HL60 cells assessed as reduction in cell viability; format: functional, cell-based
HCT-116 [7] = assay: Cytotoxicity against human HCT116 cells assessed as reduction in cell viability by SRB assay; format: functional, cell-based
L1210 [8] = assay: Cytotoxicity against mouse L1210 cells assessed as reduction in cell viability by MTT assay; format: functional, cell-based
HL-60 [9] = assay: Cytotoxicity against human HL60 cells assessed as reduction in cell viability by MTT assay; format: functional, cell-based
Hep 3B2 [10] = assay: Cytotoxicity against human Hep3B cells assessed as reduction in cell viability by MTT assay; format: functional, cell-based
CAPAN-1 [11] = assay: Cytotoxicity against human Capan1 cells assessed as reduction in cell viability by MTT assay; format: functional, cell-based
CAPAN-1 [12] = assay: Cytotoxicity against human Capan1 cells assessed as reduction in cell viability; format: functional, cell-based
Hep 3B2 [13] = assay: Cytotoxicity against human Hep3B cells assessed as reduction in cell viability; format: functional, cell-based
HCT-8 = assay: Antiproliferative activity against human HCT8 cells after 48 hrs by MTT assay; format: functional, cell-based; details: HCT-8, 48 h
SMMC-7721 [14] = assay: Cytotoxicity against human SMMC7721 cells assessed as reduction in cell viability; format: functional, cell-based
SMMC-7721 [15] = assay: Antiproliferative activity against human SMMC7721 cells after 24 to 72 hrs by MTT assay; format: functional, cell-based
L1210 [16] = assay: Antiproliferative activity against mouse L1210 cells after 24 to 72 hrs by MTT assay; format: functional, cell-based
HL-60 [17] = assay: Antiproliferative activity against human HL60 cells after 24 to 72 hrs by MTT assay; format: functional, cell-based
SMMC-7721 [18] = assay: Antiproliferative activity against human SMMC7721 cells by MTT assay; format: functional, cell-based
L1210 [19] = assay: Antiproliferative activity against mouse L1210 cells by MTT assay; format: functional, cell-based
[20] = Toxicity in mouse xenografted with human CX-1 cells; details: in vivo
[21] = Toxicity in mouse xenografted with human MB-9812 cells
HepG2 [22] = assay: Cytotoxicity against human HepG2 cells assessed as reduction in cell viability after 48 hrs by MTT assay; format: functional, cell-based; details: HepG2, 48 h
[23] = Cytotoxicity against human MGC832 cells assessed as reduction in cell viability after 48 hrs by MTT assay; format: functional, cell-based
MCF7 [24] = assay: Cytotoxicity against human MCF7 cells assessed as reduction in cell viability by MTT assay; format: functional, cell-based
SK-MEL3 = assay: Cytotoxicity against human SK-MEL-3 cells assessed as reduction in cell viability by MTT assay; format: functional, cell-based
A-431 = assay: Cytotoxicity against human A431 cells assessed as reduction in cell viability by MTT assay; format: functional, cell-based
EJ = assay: Cytotoxicity against human EJ cells assessed as reduction in cell viability by MTT assay; format: functional, cell-based
SW480 = assay: Cytotoxicity against human SW480 cells assessed as reduction in cell viability by MTT assay; format: functional, cell-based
MCF7 [25] = assay: Cytotoxicity against human MCF7 cells assessed as reduction in cell viability after 72 hrs by MTT assay; format: functional, cell-based; details: MCF7, 72 h
MCF7 [26] = assay: Potency index, ratio of IC50 for etoposide to IC50 for test compound for cytotoxicity against human MCF7 cells assessed as reduction in cell viability after 72 hrs by MTT assay; format: functional
CHO = assay: Cytotoxicity against CHO cells assessed as reduction in cell viability by MTT assay; format: cell-based; details: Cricetulus griseus
PANC-1 [27] = assay: Potency index, ratio of IC50 for etoposide to IC50 for test compound for anticancer activity against human PANC1 cells after 48 hrs by SRB assay; format: functional
A549 [28] = assay: Potency index, ratio of IC50 for etoposide to IC50 for test compound for anticancer activity against human A549 cells after 48 hrs by SRB assay; format: functional
HCT-116 [29] = assay: Potency index, ratio of IC50 for etoposide to IC50 for test compound for anticancer activity against human HCT116 cells after 48 hrs by SRB assay; format: functional
MCF7-DOX [30] = assay: Anticancer activity against human MCF7/Dox cells after 48 hrs by SRB assay; format: functional, cell-based
HL-60 [31] = assay: Potency index, ratio of IC50 for etoposide to IC50 for test compound for anticancer activity against human HL60 cells after 48 hrs by SRB assay; format: functional
MCF7 [32] = assay: Anticancer activity against human MCF7 cells after 48 hrs by SRB assay; format: functional, cell-based; details: MCF7, 48 h
SK-OV-3 [33] = assay: Anticancer activity against human SKOV3 cells after 48 hrs by SRB assay; format: functional, cell-based; details: SK-OV-3, 48 h
PANC-1 [34] = assay: Anticancer activity against human PANC1 cells after 48 hrs by SRB assay; format: functional, cell-based; details: PANC-1, 48 h
HeLa [35] = assay: Anticancer activity against human HeLa cells after 48 hrs by SRB assay; format: functional, cell-based
HL-60 [36] = assay: Anticancer activity against human HL60 cells after 48 hrs by SRB assay; format: functional, cell-based; details: HL-60, 48 h
HepG2 [37] = assay: Anticancer activity against human HepG2 cells after 48 hrs by SRB assay; format: functional, cell-based; details: HepG2, 48 h
DU-145 [38] = assay: Anticancer activity against human DU145 cells after 48 hrs by SRB assay; format: functional, cell-based; details: DU-145, 48 h
A549 [39] = assay: Anticancer activity against human A549 cells after 48 hrs by SRB assay; format: functional, cell-based; details: A549, 48 h
HCT-116 [40] = assay: Anticancer activity against human HCT116 cells after 48 hrs by SRB assay; format: functional, cell-based; details: HCT-116, 48 h
HeLa [41] = assay: Potency index, ratio of IC50 for etoposide to IC50 for test compound for anticancer activity against human HeLa cells after 48 hrs by SRB assay; format: functional
DU-145 [42] = assay: Potency index, ratio of IC50 for etoposide to IC50 for test compound for anticancer activity against human DU145 cells after 48 hrs by SRB assay; format: functional
SK-OV-3 [43] = assay: Potency index, ratio of IC50 for etoposide to IC50 for test compound for anticancer activity against human SKOV3 cells after 48 hrs by SRB assay; format: functional
MCF7 [44] = assay: Potency index, ratio of IC50 for etoposide to IC50 for test compound for anticancer activity against human MCF7 cells after 48 hrs by SRB assay; format: functional
MCF7-DOX [45] = assay: Potency index, ratio of IC50 for etoposide to IC50 for test compound for anticancer activity against human MCF7/Dox cells after 48 hrs by SRB assay; format: functional
HeLa [46] = assay: Antiproliferative activity against human HeLa cells after 72 hrs by MTT assay; format: functional, cell-based
A549 [47] = assay: Antiproliferative activity against human A549 cells after 72 hrs by MTT assay; format: functional, cell-based; details: A549, 72 h
HL-60 [48] = assay: Antiproliferative activity against human HL60 cells after 72 hrs by MTT assay; format: functional, cell-based; details: HL-60, 72 h

COc1cccc2c1C(=O)c1c(O)c3c(c(O)c1C2=O)C[C@@](O)(C(=O)CO)C[C@@H]3O[C@H]1C[C@H](N)[C@H](O)[C@H](C)O1 [DOXORUBICIN]
IC50 (PC-3): 0.4 µg/mL (≈ 0.736 µM) | IC50 (DU-145 [1]): 0.4 µg/mL (≈ 0.736 µM) | IC50 (SMMC-7721 [2]): 1200 to 2600 nM | CC50 (KB): 0.014 to 0.098 µg/mL (≈ 0.0258 to 0.18 µM) | IC50 (L1210 [3]): 1600 to 3000 nM | CC50 [4]: 0.014 to 0.098 µg/mL (≈ 0.0258 to 0.18 µM) | CC50 (MCF7 [5]): 0.014 to 0.098 µg/mL (≈ 0.0258 to 0.18 µM) | CC50 (OVCAR-3): 0.014 to 0.098 µg/mL (≈ 0.0258 to 0.18 µM) | IC50 (HL-60 [6]): 3500 nM | IC50 (HCT-116 [7]): 8.8 nM | IC50 (L1210 [8]): 1200 to 2600 nM | IC50 (HL-60 [9]): 1200 to 2600 nM | IC50 (Hep 3B2 [10]): 1800 to 3500 nM | IC50 (CAPAN-1 [11]): 1800 to 3500 nM | IC50 (CAPAN-1 [12]): 1700 nM | IC50 (Hep 3B2 [13]): 2600 nM | IC50 (HCT-8): 7200 nM | IC50 (SMMC-7721 [14]): 1600 to 3000 nM | IC50 (SMMC-7721 [15]): 2500 nM | IC50 (L1210 [16]): 1700 nM | IC50 (HL-60 [17]): 3600 nM | IC50 (SMMC-7721 [18]): 2300 nM | IC50 (L1210 [19]): 4200 nM | LD50 [20]: 11 mg/kg | LD50 [21]: 11 mg/kg

O=C(O)c1c(-c2ccc[nH]2)[nH]c2ccccc2c1=O [PENICINOLINE]
IC50 (HepG2 [22]): 7 nM | IC50 [23]: 91 nM

CCn1cc(C(=O)O)c(=O)c2cc(F)c(N3CCN(C/C(=N/OC)c4ccc(Cl)s4)CC3)cc21
IC50 (MCF7 [24]): ≤ 20000 nM | IC50 (SK-MEL3): ≤ 20000 nM | IC50 (A-431): ≤ 20000 nM | IC50 (EJ): ≤ 20000 nM | IC50 (SW480): ≤ 20000 nM | IC50 (MCF7 [25]): 2500 to 5000 nM | Ratio IC50 (MCF7 [26]): 4.64

COc1ccc(-c2nnc(CSc3nnc(-c4cn(C5CC5)c5cc(N6CCN(C)CC6)c(F)cc5c4=O)o3)o2)cc1
IC50 (SMMC-7721 [2]): 1100 to 2800 nM | IC50 (L1210 [8]): 1100 to 2800 nM | IC50 (HL-60 [9]): 1100 to 2800 nM | IC50 (CHO): 1100 to 2800 nM

CC1(CN)CN(c2ccc3c(=O)c(C(=O)O)cn(-c4nccs4)c3n2)C/C1=N/OCc1ccccc1 (stereo not given)
Ratio IC50 (PANC-1 [27]): >=1.3 - 100 | Ratio IC50 (A549 [28]): >=1.3 - 100 | Ratio IC50 (HCT-116 [29]): >=1.3 - 100 | IC50 (MCF7-DOX [30]): 500 to 6250 nM | Ratio IC50 (HL-60 [31]): >=1.3 - 100 | IC50 (MCF7 [32]): 500 to 6250 nM | IC50 (SK-OV-3 [33]): 500 to 6250 nM | IC50 (PANC-1 [34]): 500 to 6250 nM | IC50 (HeLa [35]): 500 to 6250 nM | IC50 (HL-60 [36]): 500 to 6250 nM | IC50 (HepG2 [37]): 500 to 6250 nM | IC50 (DU-145 [38]): 500 to 6250 nM | IC50 (A549 [39]): 500 to 6250 nM | IC50 (HCT-116 [40]): 500 to 6250 nM | Ratio IC50 (HeLa [41]): >=1.3 - 100 | Ratio IC50 (DU-145 [42]): >=1.3 - 100 | Ratio IC50 (SK-OV-3 [43]): >=1.3 - 100 | Ratio IC50 (MCF7 [44]): >=1.3 - 100 | Ratio IC50 (MCF7-DOX [45]): >=1.3 - 100

N=C(NS(=O)(=O)c1cccc(C(F)(F)F)c1)N1CCN(c2cc3c(cc2F)c(=O)c(C(=O)O)cn3-c2ccc(F)cc2F)CC1
IC50 (HeLa [46]): 10 nM | IC50 (A549 [47]): 28 nM | IC50 (HL-60 [48]): 18 nM
